According to patent US9260417B2, “Therapeutic methods and compositions involving allosteric kinase inhibition” (AMITECH THERAPEUTIC SOLUTIONS, INC., priority 2010, dated 2016):

Legend:
A549 cells = assay: Cell proliferation assay (BrdU ELISA) in A549 cells; format: cell-based; conditions: A549, low serum DMEM (0.5% FBS), 72 h
Description: A549 cells, which endogenously express oncogenic K-RAS, were plated at 2500 cells/well of a 96-well plate in low serum DMEM (0.5% fetal bovine serum) overnight. The next morning, compounds were serially diluted in DMSO and resuspended in fresh DMEM+0.5% medium, which was added to the cells for 72 h. At this time point the cells were fixed and proliferation was quantified using an ELISA for bromodeoxyuriding incorporation (BrdU ELISA, Millipore, Inc.). BrdU incorporation occurs during S phase and is the classical method for determining cell proliferation rates. In FIG. 14B-C, BrdU incorporation is expressed as a percentage of the BrdU incorporation occurring in cells treated with 0.1% DMSO as control. A dotted line represents the growth rate of cells treated with DMSO alone. […] (FIG. 13C)

[1] = Pharmacokinetic analysis in mice; format: in vivo
CDC2L2 = CDC2L2 (Homo sapiens (Human), UniProt Q9UQ88); assay: KINOMEscan competitive binding assay; conditions: 10 uM
Sequence of CDC2L2 (Q9UQ88 whole entry): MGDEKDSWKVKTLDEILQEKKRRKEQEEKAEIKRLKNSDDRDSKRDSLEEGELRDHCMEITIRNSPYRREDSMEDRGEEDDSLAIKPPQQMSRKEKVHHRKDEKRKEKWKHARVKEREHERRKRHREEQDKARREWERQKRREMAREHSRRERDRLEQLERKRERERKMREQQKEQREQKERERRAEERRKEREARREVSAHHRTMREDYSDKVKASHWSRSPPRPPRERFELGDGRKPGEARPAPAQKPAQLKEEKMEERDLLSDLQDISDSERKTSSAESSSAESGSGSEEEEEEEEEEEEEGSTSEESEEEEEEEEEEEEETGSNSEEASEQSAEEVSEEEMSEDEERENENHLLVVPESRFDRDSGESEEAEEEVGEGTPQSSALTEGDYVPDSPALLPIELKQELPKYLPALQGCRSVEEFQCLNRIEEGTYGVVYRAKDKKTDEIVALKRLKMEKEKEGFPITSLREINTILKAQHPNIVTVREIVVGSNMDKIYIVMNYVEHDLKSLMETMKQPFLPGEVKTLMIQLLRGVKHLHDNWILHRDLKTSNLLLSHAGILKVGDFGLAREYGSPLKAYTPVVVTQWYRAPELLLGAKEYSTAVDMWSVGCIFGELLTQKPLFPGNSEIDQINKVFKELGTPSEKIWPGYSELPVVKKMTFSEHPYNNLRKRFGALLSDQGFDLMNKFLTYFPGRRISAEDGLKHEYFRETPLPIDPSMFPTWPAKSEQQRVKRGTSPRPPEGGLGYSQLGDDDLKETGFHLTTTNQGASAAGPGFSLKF

IGF1R = IGF1R (Homo sapiens (Human), UniProt P08069); assay: KINOMEscan competitive binding assay; conditions: 10 uM
Text: (§1) In vitro kinase screen and competitive binding assay. Sorafenib as well as test compounds were submitted to Invitrogen and screened using their SelectScreen™ Profiling Service.

EPHB4 = EPHB4 (Homo sapiens (Human), UniProt P54760); assay: KINOMEscan competitive binding assay; conditions: 10 uM
Text: as §1

FLT3(N841I) = FLT3(N841I) (Homo sapiens (Human), UniProt P36888, N841I); assay: KINOMEscan competitive binding assay; conditions: 10 uM
Text: as §1

FLT3 D835Y = FLT3 D835Y (Homo sapiens (Human), UniProt P36888, D835Y); assay: KINOMEscan competitive binding assay; conditions: 10 uM
Text: as §1

FLT1 = FLT1 (Homo sapiens (Human), UniProt P17948); assay: KINOMEscan competitive binding assay; conditions: 10 uM
Text: as §1

MEK1 = MEK1 (Homo sapiens (Human), UniProt Q02750); assay: KINOMEscan competitive binding assay; conditions: 10 uM
Sequence of MEK1 (Q02750 whole entry): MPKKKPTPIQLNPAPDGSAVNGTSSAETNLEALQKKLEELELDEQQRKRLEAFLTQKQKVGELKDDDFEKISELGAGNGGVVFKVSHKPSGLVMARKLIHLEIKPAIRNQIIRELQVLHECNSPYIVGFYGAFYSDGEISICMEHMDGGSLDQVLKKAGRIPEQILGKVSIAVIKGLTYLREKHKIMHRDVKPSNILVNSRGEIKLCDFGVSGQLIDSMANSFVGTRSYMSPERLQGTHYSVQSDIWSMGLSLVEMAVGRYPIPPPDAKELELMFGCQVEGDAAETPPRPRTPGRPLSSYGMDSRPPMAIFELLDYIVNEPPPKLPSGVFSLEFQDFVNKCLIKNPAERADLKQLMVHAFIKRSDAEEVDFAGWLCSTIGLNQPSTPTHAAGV
Text: as §1

CDK3 = CDK3 (Homo sapiens (Human), UniProt Q00526); assay: KINOMEscan competitive binding assay; conditions: 10 uM
Text: as §1

MET = MET (Homo sapiens (Human), UniProt P08581); assay: KINOMEscan competitive binding assay; conditions: 10 uM
Text: as §1

TIE1 = TIE1 (Homo sapiens (Human), UniProt P35590); assay: KINOMEscan competitive binding assay; conditions: 10 uM
Text: as §1

EPHA2 = EPHA2 (Homo sapiens (Human), UniProt P29317); assay: KINOMEscan competitive binding assay; conditions: 10 uM
Text: as §1

AMPK-alpha1 = AMPK-alpha1 (Homo sapiens (Human), UniProt Q13131); assay: KINOMEscan competitive binding assay; conditions: 10 uM
Sequence of AMPK-alpha1 (Q13131 whole entry): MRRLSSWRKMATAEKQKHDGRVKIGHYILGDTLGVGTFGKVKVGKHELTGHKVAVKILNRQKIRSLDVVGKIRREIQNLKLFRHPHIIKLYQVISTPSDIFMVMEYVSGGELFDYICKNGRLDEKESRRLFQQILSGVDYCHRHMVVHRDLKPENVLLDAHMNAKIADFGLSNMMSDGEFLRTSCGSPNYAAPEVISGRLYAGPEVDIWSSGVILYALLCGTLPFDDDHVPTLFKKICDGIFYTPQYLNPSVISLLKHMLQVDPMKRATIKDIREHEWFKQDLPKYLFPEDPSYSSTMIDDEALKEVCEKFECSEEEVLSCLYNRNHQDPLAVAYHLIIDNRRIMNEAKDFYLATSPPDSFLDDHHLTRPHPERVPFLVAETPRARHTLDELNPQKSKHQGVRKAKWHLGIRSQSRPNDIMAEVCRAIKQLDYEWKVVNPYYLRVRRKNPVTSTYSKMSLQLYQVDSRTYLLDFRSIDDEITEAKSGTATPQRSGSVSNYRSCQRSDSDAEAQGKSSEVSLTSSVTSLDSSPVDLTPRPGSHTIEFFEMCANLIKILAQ
Text: as §1

FLT3(ITD) = assay: KINOMEscan competitive binding assay; conditions: 10 uM
Text: as §1

FLT3(D835H) = FLT3(D835H) (Homo sapiens (Human), UniProt P36888, D835H); assay: KINOMEscan competitive binding assay; conditions: 10 uM
Text: as §1

FAK = FAK (Homo sapiens (Human), UniProt Q05397); assay: KINOMEscan competitive binding assay; conditions: 10 uM
Text: as §1

LIMK2 = LIMK2 (Homo sapiens (Human), UniProt P53671); assay: KINOMEscan competitive binding assay; conditions: 10 uM
Sequence of LIMK2 (P53671 whole entry): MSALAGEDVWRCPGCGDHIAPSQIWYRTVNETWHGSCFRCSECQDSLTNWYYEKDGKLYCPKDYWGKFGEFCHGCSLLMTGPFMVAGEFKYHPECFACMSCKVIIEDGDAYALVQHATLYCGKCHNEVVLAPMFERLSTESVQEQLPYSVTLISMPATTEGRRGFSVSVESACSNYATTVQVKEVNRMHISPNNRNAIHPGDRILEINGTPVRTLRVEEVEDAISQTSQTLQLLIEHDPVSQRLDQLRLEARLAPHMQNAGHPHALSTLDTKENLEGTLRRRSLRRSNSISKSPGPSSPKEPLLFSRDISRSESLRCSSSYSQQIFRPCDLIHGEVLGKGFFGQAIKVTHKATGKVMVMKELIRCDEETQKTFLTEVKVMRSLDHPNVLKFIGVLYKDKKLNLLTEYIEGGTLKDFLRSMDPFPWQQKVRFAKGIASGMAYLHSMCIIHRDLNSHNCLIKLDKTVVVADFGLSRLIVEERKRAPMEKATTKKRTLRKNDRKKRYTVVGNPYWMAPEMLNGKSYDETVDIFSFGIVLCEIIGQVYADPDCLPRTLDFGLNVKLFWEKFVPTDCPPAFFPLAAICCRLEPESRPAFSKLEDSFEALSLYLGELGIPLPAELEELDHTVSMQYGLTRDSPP
Text: as §1

ERK2 = ERK2 (Homo sapiens (Human), UniProt P28482); assay: KINOMEscan competitive binding assay; conditions: 10 uM
Text: as §1

INSR = INSR (Homo sapiens (Human), UniProt P06213); assay: KINOMEscan competitive binding assay; conditions: 10 uM
Text: as §1

PAK4 = PAK4 (Homo sapiens (Human), UniProt O96013); assay: KINOMEscan competitive binding assay; conditions: 10 uM
Text: as §1

CDK7 = CDK7 (Homo sapiens (Human), UniProt P50613); assay: KINOMEscan competitive binding assay; conditions: 10 uM
Text: as §1

KIT(V559D) = KIT(V559D) (Homo sapiens (Human), UniProt P10721, V559D); assay: KINOMEscan competitive binding assay; conditions: 10 uM
Sequence of KIT(V559D) (P10721 26-976 V559D): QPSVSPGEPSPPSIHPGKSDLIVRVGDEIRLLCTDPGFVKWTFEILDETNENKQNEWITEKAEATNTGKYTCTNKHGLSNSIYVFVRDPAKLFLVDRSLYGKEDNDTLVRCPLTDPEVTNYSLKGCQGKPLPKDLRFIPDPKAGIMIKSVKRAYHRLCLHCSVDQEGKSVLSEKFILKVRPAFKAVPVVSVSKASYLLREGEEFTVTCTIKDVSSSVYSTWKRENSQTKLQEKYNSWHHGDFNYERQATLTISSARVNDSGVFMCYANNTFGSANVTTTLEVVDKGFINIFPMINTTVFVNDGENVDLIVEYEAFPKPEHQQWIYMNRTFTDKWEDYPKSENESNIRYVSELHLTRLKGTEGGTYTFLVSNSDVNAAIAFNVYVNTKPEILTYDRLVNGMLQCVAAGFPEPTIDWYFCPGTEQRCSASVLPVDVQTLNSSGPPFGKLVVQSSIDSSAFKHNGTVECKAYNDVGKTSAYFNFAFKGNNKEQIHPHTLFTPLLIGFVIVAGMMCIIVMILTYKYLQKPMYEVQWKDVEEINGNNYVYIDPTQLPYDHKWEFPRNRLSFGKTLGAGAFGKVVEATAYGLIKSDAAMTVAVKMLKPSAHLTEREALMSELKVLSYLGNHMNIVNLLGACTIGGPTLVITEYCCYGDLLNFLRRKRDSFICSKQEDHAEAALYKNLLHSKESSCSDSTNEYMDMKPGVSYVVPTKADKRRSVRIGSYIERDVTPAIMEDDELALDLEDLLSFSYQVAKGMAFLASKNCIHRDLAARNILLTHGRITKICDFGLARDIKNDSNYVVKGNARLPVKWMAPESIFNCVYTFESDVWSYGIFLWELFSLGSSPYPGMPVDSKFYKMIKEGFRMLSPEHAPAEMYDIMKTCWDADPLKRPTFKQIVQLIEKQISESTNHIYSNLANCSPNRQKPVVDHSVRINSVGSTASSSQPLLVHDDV
Text: as §1

CDK2 = CDK2 (Homo sapiens (Human), UniProt P24941); assay: KINOMEscan competitive binding assay; conditions: 10 uM
Text: as §1

LKB1 = LKB1 (Homo sapiens (Human), UniProt Q15831); assay: KINOMEscan competitive binding assay; conditions: 10 uM
Text: as §1

CDK5 = CDK5 (Homo sapiens (Human), UniProt Q00535); assay: KINOMEscan competitive binding assay; conditions: 10 uM
Sequence of CDK5 (Q00535 whole entry): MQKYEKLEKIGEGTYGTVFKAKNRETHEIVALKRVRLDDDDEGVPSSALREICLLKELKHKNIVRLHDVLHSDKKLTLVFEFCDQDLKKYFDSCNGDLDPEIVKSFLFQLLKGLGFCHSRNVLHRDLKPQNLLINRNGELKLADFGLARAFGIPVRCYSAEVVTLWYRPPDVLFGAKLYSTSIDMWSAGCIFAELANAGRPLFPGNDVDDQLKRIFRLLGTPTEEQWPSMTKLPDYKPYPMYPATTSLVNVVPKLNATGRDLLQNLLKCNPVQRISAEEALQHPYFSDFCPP
Text: as §1

KIT(D616V) = assay: KINOMEscan competitive binding assay; conditions: 10 uM
Text: as §1

FLT4 = FLT4 (Homo sapiens (Human), UniProt P35916); assay: KINOMEscan competitive binding assay; conditions: 10 uM
Text: as §1

JNK1 = JNK1 (Homo sapiens (Human), UniProt P45983); assay: KINOMEscan competitive binding assay; conditions: 10 uM
Sequence of JNK1 (P45983 whole entry): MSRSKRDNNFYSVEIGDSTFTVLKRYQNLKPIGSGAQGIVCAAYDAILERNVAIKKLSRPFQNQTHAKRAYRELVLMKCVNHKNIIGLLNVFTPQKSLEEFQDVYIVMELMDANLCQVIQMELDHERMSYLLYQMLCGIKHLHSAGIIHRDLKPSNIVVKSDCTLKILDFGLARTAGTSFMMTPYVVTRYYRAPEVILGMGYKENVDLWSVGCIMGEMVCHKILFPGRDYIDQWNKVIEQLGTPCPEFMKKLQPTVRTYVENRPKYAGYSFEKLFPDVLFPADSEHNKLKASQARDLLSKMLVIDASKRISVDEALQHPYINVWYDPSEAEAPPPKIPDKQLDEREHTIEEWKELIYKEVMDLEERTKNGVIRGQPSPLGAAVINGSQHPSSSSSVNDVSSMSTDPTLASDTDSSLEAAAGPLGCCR
Text: as §1

TIE2 = TIE2 (Homo sapiens (Human), UniProt Q02763); assay: KINOMEscan competitive binding assay; conditions: 10 uM
Text: as §1

GSK3B = GSK3B (Homo sapiens (Human), UniProt P49841); assay: KINOMEscan competitive binding assay; conditions: 10 uM
Text: as §1

ARK5 = ARK5 (Homo sapiens (Human), UniProt O60285); assay: KINOMEscan competitive binding assay; conditions: 10 uM
Text: as §1

PIK3CA = PIK3CA (Homo sapiens (Human), UniProt P42336); assay: KINOMEscan competitive binding assay; conditions: 10 uM
Text: as §1

RIOK3 = RIOK3 (Homo sapiens (Human), UniProt O14730); assay: KINOMEscan competitive binding assay; conditions: 10 uM
Sequence of RIOK3 (O14730 whole entry): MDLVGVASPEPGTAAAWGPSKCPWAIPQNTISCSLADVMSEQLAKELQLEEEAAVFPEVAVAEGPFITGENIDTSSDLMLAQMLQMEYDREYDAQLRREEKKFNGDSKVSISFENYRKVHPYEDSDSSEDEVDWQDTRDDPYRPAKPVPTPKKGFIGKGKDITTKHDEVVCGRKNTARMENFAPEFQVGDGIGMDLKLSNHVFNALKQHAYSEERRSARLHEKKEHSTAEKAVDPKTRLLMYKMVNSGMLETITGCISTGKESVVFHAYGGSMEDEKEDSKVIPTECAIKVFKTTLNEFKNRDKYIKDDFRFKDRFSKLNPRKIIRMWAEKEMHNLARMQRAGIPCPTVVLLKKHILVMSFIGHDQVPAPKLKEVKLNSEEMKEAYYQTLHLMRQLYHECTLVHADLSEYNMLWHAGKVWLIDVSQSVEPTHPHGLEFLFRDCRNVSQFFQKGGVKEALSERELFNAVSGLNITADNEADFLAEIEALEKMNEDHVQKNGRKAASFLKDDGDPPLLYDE
Text: as §1

KIT(V559D, V654A) = KIT(V559D, V654A) (Homo sapiens (Human), UniProt P10721, V559D/V654A); assay: KINOMEscan competitive binding assay; conditions: 10 uM
Sequence of KIT(V559D, V654A) (P10721 26-976 V559D/V654A): as the sequence (P10721 26-976 V559D) above, with V629A counted along it
Text: as §1

BMX = BMX (Homo sapiens (Human), UniProt P51813); assay: KINOMEscan competitive binding assay; conditions: 10 uM
Text: as §1

CSNK1E = CSNK1E (Homo sapiens (Human), UniProt P49674); assay: KINOMEscan competitive binding assay; conditions: 10 uM
Sequence of CSNK1E (P49674 whole entry): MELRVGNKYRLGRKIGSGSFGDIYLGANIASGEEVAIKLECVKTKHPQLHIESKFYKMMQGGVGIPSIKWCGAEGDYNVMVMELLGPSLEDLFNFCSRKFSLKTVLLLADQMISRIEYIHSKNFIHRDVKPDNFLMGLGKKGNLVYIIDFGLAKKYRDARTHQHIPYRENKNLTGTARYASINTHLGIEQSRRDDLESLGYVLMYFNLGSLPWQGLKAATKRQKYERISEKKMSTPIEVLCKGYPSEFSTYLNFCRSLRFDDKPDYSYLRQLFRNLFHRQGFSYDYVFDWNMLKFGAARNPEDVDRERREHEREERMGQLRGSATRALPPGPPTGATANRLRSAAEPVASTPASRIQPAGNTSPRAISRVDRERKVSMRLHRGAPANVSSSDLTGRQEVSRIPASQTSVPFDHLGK

Structure (SMILES): CSc1nc(N)cc(Oc2ccc(-c3nnc(Nc4cccc(C(F)(F)F)c4)[nH]3)cc2)n1 [Compound 6]
- cell proliferation (BrdU incorporation) versus DMSO control (A549 cells): inhibitor cell proliferation
- AUC0-12h ([1]; 50 mg/kg, ip, bid): 14.7 µg·h/mL
- T1/2 ([1]; 50 mg/kg, ip, bid): 11.5 h
- AUC0-24h ([1]; 100 mg/kg, oral): 8.7 µg·h/mL
- Cmax (printed C.) ([1]; 100 mg/kg, oral): 4.9 µg/mL
- T1/2 ([1]; 100 mg/kg, oral): 6.1 h
- % Control (CDC2L2): 83%
- % Control (IGF1R): 100%
- % Control (EPHB4): 94%
- % Control (FLT3(N841I)): 3.1%
- % Control (FLT3 D835Y): 18%
- % Control (FLT1): 81%
- % Control (MEK1): 84%
- % Control (CDK3): 91%
- % Control (MET): 94%
- % Control (TIE1): 76%
- % Control (EPHA2): 100%
- % Control (AMPK-alpha1): 72%
- % Control (FLT3(ITD)): 3.1%
- % Control (FLT3(D835H)): 17%
- % Control (FAK): 100%
- % Control (LIMK2): 72%
- % Control (ERK2): 90%
- % Control (INSR): 100%
- % Control (PAK4): 100%
- % Control (CDK7): 97%
- % Control (KIT(V559D)): 0.1%
- % Control (CDK2): 87%
- % Control (LKB1): 100%
- % Control (CDK5): 88%
- % Control (KIT(D616V)): 76%
- % Control (FLT4): 100%
- % Control (JNK1): 98%
- % Control (TIE2): 88%
- % Control (GSK3B): 90%
- % Control (ARK5): 70%
- % Control (PIK3CA): 100%
- % Control (RIOK3): 100%
- % Control (KIT(V559D, V654A)): 15%
- % Control (BMX): 97%
- % Control (CSNK1E): 47%
